One assay deals with CfEcR-DEF mutant T52P (Choristoneura fumiferana, UniProt O77255, T335P). Nature of the assay: cell-based. To be noted: for Emax: NIH3T3, 40 h, read-out: Rel Max FI. The procedure: (§1) This construct was prepared in the same way as in switch 1.1 above except wild-type CfEcR-DEF was replaced with mutant CfEcR-DEF comprising a ligand binding domain comprising a substitution mutation selected from Table 1 below.
(§2) DNAs were transfected into mouse NIH3T3 cells (ATCC) as follows. Standard methods for culture and maintenance of the cells were followed. Cells were harvested and plated 96-well plates at 2,500 cells per well, in 50 μL of growth medium containing 10% fetal bovine serum (FBS). Twenty-four hours later, the cells were treated with 35 μL of serum-free growth medium containing either dimethylsulfoxide (DMSO; control) or a DMSO solution of ligand. The cells were then transfected using Superfect (Qiagen Inc.) transfection reagent. For each well, 0.625 μL of Superfect was mixed with 14.2 μL of serum-free growth medium. 0.16 μg of reporter construct and 0.04 μg of each receptor construct were added to the transfection reagent mix. The contents of the transfection mix were mixed in a vortex mixer and let stand at room temperature for 30 minutes. At the end of incubation, 15 μL of transfection mix was added to the cells. The cells were maintained at 37° C. and 5% CO2 for 48 hours in 5% FBS.
(§3) Reporter Assays: Cells were harvested 40 hours after adding ligands. 125 μL of passive lysis buffer (part of Dual-Luciferase reporter assay system from Promega Corporation) were added to each well of the […] plate. The plates were placed on a rotary shaker for 15 minutes. Twenty μL of lysate were assayed. Luciferase activity was measured using Dual-Luciferase reporter assay system from Promega Corporation following the manufacturer's instructions. Fold induction (FI) activities were calculated by dividing relative light units (“RLU”) in ligand treated cells with RLU in DMSO treated cells (untreated control).

A further assay addresses CfEcR-DEF mutant F109M (Choristoneura fumiferana, UniProt O77255, F392M). Nature of the assay: cell-based. To be noted: for Rel Max FI: relative to max fold induction of GS-E ligand; for Emax: NIH3T3, 40 h, read-out: Rel Max FI. How it is done: as §1, §2, §3
The next assay has as its target CfEcR-DEF mutant F48W (Choristoneura fumiferana, UniProt O77255, F331W). Nature of the assay: cell-based. To be noted: for Rel Max FI: relative to max fold induction of GS-E ligand; for Emax: NIH3T3, 40 h, read-out: Rel Max FI. The procedure: as §1, §2, §3
For a further assay, the target named is CfEcR-DEF mutant V96E (Choristoneura fumiferana, UniProt O77255, V379E). Nature of the assay: cell-based. To be noted: for Emax: NIH3T3, 40 h, read-out: Rel Max FI. The procedure: as §1, §2, §3
The target in the next assay is CfEcR-DEF mutant Y120M (Choristoneura fumiferana, UniProt O77255, Y403M). Nature of the assay: cell-based. To be noted: for Emax: NIH3T3, 40 h, read-out: Rel Max FI. How it is done: as §1, §2, §3
The target in the next assay is CfEcR-DEF mutant V128F (Choristoneura fumiferana, UniProt O77255, V411F). The assay can be described thus: cell-based. To be noted: for Emax: NIH3T3, 40 h, read-out: Rel Max FI. How it is done:
as §1, §2, §3

The target of a further assay is CfEcR-DEF mutant F48Y (Choristoneura fumiferana, UniProt O77255, F331Y). The assay can be described thus: cell-based. To be noted: for Rel Max FI: relative to max fold induction of GS-E ligand; for Emax: NIH3T3, 40 h, read-out: Rel Max FI. The procedure: as §1, §2, §3
Another assay has as its system CfEcR-DEF mutant N119F. Nature of the assay: GAL4-driven luciferase reporter assay in NIH3T3 cells. In kind it is cell-based, Choristoneura fumiferana. The procedure: as §1, §2, §3
In general terms: In a reporter assay the amount or activity of a reporter protein is the signal.

Assay [1] concerns the target CfEcR-DEF mutant V107I/Y127E/G (Choristoneura fumiferana, UniProt O77255, INS541G/V390I/Y410E). The assay is described as above. To be noted: for Rel Max FI: relative to max fold induction of GS-E ligand; for Emax: NIH3T3, 40 h, read-out: Rel Max FI. In kind it is cell-based. How it is done: as §1
The Gal-4-CfEcR-DEF(VYG) mutant was created by inserting an extra glycine at the C-terminal end of EcR substitution mutant V107I/Y127E [CfECR(VY)] by PCR. Essentially, this was done in two steps: PCR-amplification of CfEcR-DEF(VYG) and substitution of the CfEcR(VY) in the vector GAL4-CfEcR DEF(VY) pBIND 1-9 with the PCR-amplified CfEcR-DEF(VYG). The CfEcR-DEF region (with the extra glycine) was amplified by using the vector GAL4-CfEcR DEF(VY) pBIND 1-9 as template and the following PCR primers: […]
as §2, §3

[2] abbreviates: mutant V107I/Y127E/G, read-out: EC50.

Several values for one entry are separate records, joined by “and”; a condition that tells them apart may be missing. Equal entries are not always repeated. Where two headings read alike, the source gives them in different places.

Sequence of CfEcR-DEF mutant V96E (O77255 entry or part of it V379E): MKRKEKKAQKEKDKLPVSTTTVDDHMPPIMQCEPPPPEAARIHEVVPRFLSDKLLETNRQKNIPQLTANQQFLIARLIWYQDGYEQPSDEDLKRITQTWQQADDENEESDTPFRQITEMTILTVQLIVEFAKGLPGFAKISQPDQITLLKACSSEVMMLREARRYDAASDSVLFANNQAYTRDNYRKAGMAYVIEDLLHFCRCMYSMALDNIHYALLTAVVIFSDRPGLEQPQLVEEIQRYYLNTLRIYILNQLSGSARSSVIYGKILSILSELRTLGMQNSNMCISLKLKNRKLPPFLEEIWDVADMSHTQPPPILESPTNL
Sequence of CfEcR-DEF mutant V96E (P28702 299-449, further chain): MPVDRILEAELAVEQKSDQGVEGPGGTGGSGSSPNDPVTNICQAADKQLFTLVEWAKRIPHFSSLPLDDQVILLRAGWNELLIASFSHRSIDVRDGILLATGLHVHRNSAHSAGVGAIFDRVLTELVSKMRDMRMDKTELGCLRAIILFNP
Sequence of CfEcR-DEF mutant T52P (P28702 298-449): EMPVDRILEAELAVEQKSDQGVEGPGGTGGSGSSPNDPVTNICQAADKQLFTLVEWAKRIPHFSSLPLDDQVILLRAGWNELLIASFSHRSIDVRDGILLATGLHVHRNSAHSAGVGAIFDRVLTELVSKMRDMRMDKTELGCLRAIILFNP
Sequence of CfEcR-DEF mutant T52P (O77255 entry or part of it T335P): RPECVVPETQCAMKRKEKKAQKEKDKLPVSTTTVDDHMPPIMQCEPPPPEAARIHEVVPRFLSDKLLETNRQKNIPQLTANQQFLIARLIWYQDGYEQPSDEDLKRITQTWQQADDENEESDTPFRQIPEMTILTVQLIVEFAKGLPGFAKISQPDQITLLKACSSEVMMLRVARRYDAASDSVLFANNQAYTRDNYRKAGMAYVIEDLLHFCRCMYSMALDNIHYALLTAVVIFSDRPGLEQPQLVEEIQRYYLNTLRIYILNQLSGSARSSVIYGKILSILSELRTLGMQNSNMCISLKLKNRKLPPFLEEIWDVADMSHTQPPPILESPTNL
Sequence of CfEcR-DEF mutant F109M (O77255 entry or part of it F392M): as the sequence (O77255 entry or part of it T335P) above, with P129T, F186M counted along it
Sequence of CfEcR-DEF mutant F109M (P28702 299-449, further chain): as the sequence (P28702 299-449, further chain) above
Sequence of CfEcR-DEF mutant V107I/Y127E/G (P28702 299-449, stated change not applied): as the sequence (P28702 299-449, further chain) above
Sequence of CfEcR-DEF mutant V107I/Y127E/G (O77255 entry or part of it V390I/Y410E/INS541G): as the sequence (O77255 entry or part of it V379E) above, with E161V counted along it
Sequence of CfEcR-DEF mutant V128F (P28702 299-449): as the sequence (P28702 299-449, further chain) above
Sequence of CfEcR-DEF mutant V128F (O77255 entry or part of it V411F): as the sequence (O77255 entry or part of it V379E) above, with E161V, V193F counted along it
Sequence of CfEcR-DEF mutant F48W (P28702 299-449): as the sequence (P28702 299-449, further chain) above
Sequence of CfEcR-DEF mutant F48W (O77255 entry or part of it F331W): as the sequence (O77255 entry or part of it T335P) above, with F125W, P129T counted along it
Sequence of CfEcR-DEF mutant F48Y (O77255 entry or part of it F331Y): as the sequence (O77255 entry or part of it T335P) above, with F125Y, P129T counted along it
Sequence of CfEcR-DEF mutant F48Y (P28702 299-449, further chain): as the sequence (P28702 299-449, further chain) above
Sequence of CfEcR-DEF mutant Y120M (O77255 entry or part of it Y403M): as the sequence (O77255 entry or part of it V379E) above, with E161V, Y185M counted along it
Sequence of CfEcR-DEF mutant Y120M (P28702 299-449, further chain): as the sequence (P28702 299-449, further chain) above

For the molecule `CC(C)CC[C@@H](O)[C@](C)(O)[C@H]1CC[C@@]2(O)C3=CC(=O)[C@@H]4C[C@@H](O)[C@@H](O)C[C@]4(C)[C@H]3CC[C@]12C` [PonA, ponasterone A], the “Rel Max FI” value on CfEcR-DEF mutant T52P (mutant T52P) came out at 0.03; at CfEcR-DEF mutant F109M (mutant F109M), 0.16; on CfEcR-DEF mutant F48W (mutant F48W), 0.65; at CfEcR-DEF mutant V96E (mutant V96E) it was 0.02; on CfEcR-DEF mutant Y120M (mutant Y120M) it was 0.04; on CfEcR-DEF mutant V128F (mutant V128F), 0.03. In addition, the figures for the “Rel Max FI” value (at CfEcR-DEF mutant F48Y (mutant F48Y); in assay [1] (mutant V107I/Y127E/G)) were 0.33 and 0.67, respectively. For the same molecule, the EC50 (commonly the concentration at which the effect is half-maximal) at CfEcR-DEF mutant T52P (mutant T52P, read-out: EC50) is greater than 33 µM; at CfEcR-DEF mutant F109M (mutant F109M, read-out: EC50), roughly 20 µM; on CfEcR-DEF mutant F48W (mutant F48W, read-out: EC50), roughly 10 µM; on CfEcR-DEF mutant V96E (mutant V96E, read-out: EC50) it was greater than 33 µM; at CfEcR-DEF mutant Y120M (mutant Y120M, read-out: EC50), greater than 33 µM; at CfEcR-DEF mutant V128F (mutant V128F, read-out: EC50), greater than 33 µM. The EC50 on CfEcR-DEF mutant F48Y (mutant F48Y, read-out: EC50) was roughly 10 µM; in assay [1] (setting [2]), 1.65 µM. Also, the “Fold increase over WT” value in the assay on CfEcR-DEF mutant N119F (1.6 nM ligand) came to 1.33; in the assay with CfEcR-DEF mutant N119F (8 nM ligand) it was 1.7; with CfEcR-DEF mutant N119F (40 nM ligand), 9.42; in the assay on CfEcR-DEF mutant N119F (200 nM ligand), 6.50; in the assay on CfEcR-DEF mutant N119F (1 μM ligand), 3.00.

Regarding `Cc1cc(C)cc(C(=O)N(NC(=O)c2cccc(C(C)C)c2C)C(C)(C)C)c1` [RG-102362, 3,5-Dimethyl-benzoic acid N-tert-butyl-N′-(3-isopropyl-2-methyl-benzoyl)-hydrazide], the EC50 on CfEcR-DEF mutant T52P is roughly 6 µM; on CfEcR-DEF mutant F109M, 0.82 µM; at CfEcR-DEF mutant F48W, 0.77 µM; at CfEcR-DEF mutant V96E, 1.86 µM; at CfEcR-DEF mutant Y120M, roughly 10 µM; at CfEcR-DEF mutant V128F (EC50, mutant V128F), greater than 33 µM. For the same molecule, the values for the EC50 (on CfEcR-DEF mutant F48Y; in [1]) were 0.59 µM and 0.06 µM, respectively. Moreover, the Emax on CfEcR-DEF mutant T52P worked out at 11%; at CfEcR-DEF mutant F109M, 60%; at CfEcR-DEF mutant F48W, 51%; on CfEcR-DEF mutant V96E, 48%; on CfEcR-DEF mutant Y120M it was 13%; on CfEcR-DEF mutant V128F it was 234%. Besides, the Emax was 48% at CfEcR-DEF mutant F48Y and 81% in [1].

As to `CC(C)(O)CC[C@@H](O)[C@](C)(O)[C@H]1CC[C@@]2(O)C3=CC(=O)[C@@H]4C[C@@H](O)[C@@H](O)C[C@]4(C)[C@H]3CC[C@]12C` [20E, 20-hydroxyecdysone], the “Rel Max FI” value at CfEcR-DEF mutant T52P (mutant T52P) came to 0.02; on CfEcR-DEF mutant F109M (mutant F109M), 0; at CfEcR-DEF mutant F48W (mutant F48W), 0; at CfEcR-DEF mutant V96E (mutant V96E), 0; on CfEcR-DEF mutant Y120M (mutant Y120M) it was 0; at CfEcR-DEF mutant V128F (mutant V128F), 0.02. Moreover, the “Rel Max FI” value turned out to be 0 on CfEcR-DEF mutant F48Y (mutant F48Y) and 0.03 in assay [1] (mutant V107I/Y127E/G). For the same molecule, the concentration giving a half-maximal response (EC50) on CfEcR-DEF mutant T52P (mutant T52P, read-out: EC50) is greater than 33 µM; at CfEcR-DEF mutant F109M (mutant F109M, read-out: EC50), greater than 33 µM; at CfEcR-DEF mutant F48W (mutant F48W, read-out: EC50), greater than 33 µM; at CfEcR-DEF mutant V96E (mutant V96E, read-out: EC50), greater than 33 µM; at CfEcR-DEF mutant Y120M (mutant Y120M, read-out: EC50) it was greater than 33 µM; on CfEcR-DEF mutant V128F (mutant V128F, read-out: EC50) it was roughly 10 µM. For the same molecule, the EC50 at CfEcR-DEF mutant F48Y (mutant F48Y, read-out: EC50) was greater than 33 µM; in assay [1] (setting [2]), greater than 33 µM.

Turning to `CCc1cccc(C(=O)NN(C(=O)c2cc(C)cc(C)c2)C(C)(C)C)c1C` [RG-101691, 3,5-Dimethyl-benzoic acid N-tert-butyl-N′-(3-ethyl-2-methyl-benzoyl)-hydrazide], the EC50 at CfEcR-DEF mutant T52P was greater than 33 µM; on CfEcR-DEF mutant F109M, 0.65 µM; on CfEcR-DEF mutant F48W, 1.53 µM; at CfEcR-DEF mutant V96E, 1.62 µM; at CfEcR-DEF mutant Y120M it was roughly 10 µM; at CfEcR-DEF mutant V128F (EC50, mutant V128F), ~8.3 µM and 5.4 µM. Also, the EC50 at CfEcR-DEF mutant F48Y turned out to be 0.93 µM; in assay [1], 0.02 µM. Moreover, the Emax on CfEcR-DEF mutant T52P is 2%; at CfEcR-DEF mutant F109M, 75%; at CfEcR-DEF mutant F48W, 74%; at CfEcR-DEF mutant V96E, 81%; at CfEcR-DEF mutant Y120M, 30%; on CfEcR-DEF mutant V128F, 4%. Further, the Emax at CfEcR-DEF mutant F48Y is 69%; in assay [1], 85%.

Values taken from patent US9163256B2, “Mutant receptors and their use in a nuclear receptor-based inducible gene expression system” (priority 2004, dated 2015).
